`CCCOc1ccc(-c2cccc3nc(N)c4ncn(CC(C)C)c4c23)cc1` showed a melting point of 181 to 182 °C. For `COC(=O)c1ccccc1C(=O)NNC(=S)Nc1ccccc1`, the melting point was 140 to 142 °C. Work on `COc1ccc2c(c1)N(CCCN1CCC(CCO)CC1)c1cccc(S(C)(=O)=O)c1S2` yielded a melting point of 117 to 118 °C. `O=c1ccn(-c2ccccc2F)nc1-c1ccnn1-c1ccccc1` gave a melting point of 124 to 125 °C. With `Cc1cccc(NC(=O)NCC(=O)N(CC(=O)OC(C)(C)C)c2cccc(C(F)(F)F)c2)c1` the melting point was 140 °C. For `O=C(CO)NNc1ccnc2c(NC(=O)c3c(Cl)cccc3Cl)cccc12`, the melting point was 248 to 250 °C. `O=S(=O)(c1ccc(Cl)cc1)C(c1cc(F)ccc1F)c1cc(N2CCCS2(=O)=O)ncc1Cl` (stereo unspecified) showed a melting point of 219 to 221 °C. With `CCOC(=O)Cc1cc(C)c(C(=O)c2ccc([N+](=O)[O-])cc2)n1C` the melting point was 148 to 149 °C. Work on `CC(=O)C1CCC2C3CC=C4CC(F)CCC4(C)C3CCC12C` (stereo unspecified) yielded a melting point of 166 to 167 °C. `COc1ccc(S(=O)(=O)Nc2ccccc2O)cc1` showed a melting point of 89 °C. `c1ccc(CN2C[C@@H]3Cc4cc5ccccc5n4C[C@@H]3C2)cc1` (relative stereo) gave a melting point of 91 to 93 °C. `CS(=O)(=O)c1ccc(Oc2cc(OCc3cccc(Cl)n3)c3[nH]c(C4=NCC(CC(N)=O)S4)cc3c2)cc1` (stereo unspecified) showed a melting point of 147 to 148 °C. With `NC1(C(=O)O)CC(O)C2C(C(=O)O)C21` (stereo unspecified) the melting point was 78 to 80 °C. With `CC(C)N(C(=O)c1cccc2c1CCc1cc(C(F)(F)F)ccc1S2)C(C)C` the melting point was 122 °C. With `CCCc1ccc(OCCc2c[nH]cn2)cc1` the melting point was 168 to 171 °C. With `O=S(=O)(c1ccccc1)c1ccc(Oc2ccc(Cl)c(Cl)c2)cc1` the melting point was 145 to 146 °C. Work on `O=C(O)CCc1ccc(SCCC(c2ccccc2)(c2ccccc2)c2ccccc2)cc1` yielded a melting point of 51 to 53 °C. `COc1ccccc1Oc1c(N=[N+]=[N-])nc(-c2ncccn2)nc1C(=O)OCCO` showed a melting point of 133 to 134 °C. Work on `Cc1nc(/C=C/c2cccc(Cl)c2F)no1` yielded a melting point of 95 to 98 °C. In the case of `Nc1ccc(Br)cc1CS(=O)(=O)c1ccccc1`, the melting point is reported as 140 to 141 °C. For `O=C1NCCc2c1cc1n2CCCC1`, the melting point was 195 to 197 °C. Work on `COc1ccc2cc(C3=CCC4(CCNCC4)CC3)ccc2c1` yielded a melting point of 147 to 150 °C. For `N#Cc1ccc(S(=O)(=O)n2ccc3ccccc32)cc1C#N`, the melting point was 171 to 173 °C. Work on `CNC1([C@@H]2CCN(c3ccc4c(=O)c(C(=O)O)cn([C@@H]5C[C@@H]5F)c4c3C)C2)CC1` yielded a melting point of 223 to 224 °C. With `Cc1nc2cc(Cl)ccc2c(=O)n1CCc1ccccc1` the melting point was 133 to 135 °C. With `OC(c1ccc2c(c1)OCCN2)(C(F)(F)F)C(F)(F)F` the melting point was 119 to 120 °C. Work on `CN1CCN(c2ccc(/C=C/c3ccccc3F)cc2)CC1` yielded a melting point of 142 to 144 °C. `O=C(Cn1c(-c2ccc(Cl)cc2)nc2cccnc21)N1CCCC1` gave a melting point of 224 to 225 °C. `CCOC(=O)c1cc(C(=O)OC)c(CCN2C(=O)c3ccccc3C2=O)o1` showed a melting point of 122 to 123 °C. For `COc1ccc(-c2ccccc2C)cc1C=O`, the melting point was 66 to 69 °C. In the case of `CN(C)C(=O)C(=O)c1c(Cl)n(C)c2ccc(Cl)cc12`, the melting point is reported as 205 to 206 °C. With `Cc1ccc(Oc2ccccc2-n2cc(C(=O)O)nn2)c(O)c1` the melting point was 168 to 169 °C. For `Nc1ccc2c(c1)ncn2-c1cccc(-c2cccnc2)c1`, the melting point was 172 to 175 °C. `CC(C)(C)NC(=O)C1CCC(c2ccccc2)N1C(=O)CNC(=O)OC(C)(C)C` (stereo unspecified) gave a melting point of 117 °C. Work on `O=c1c2[nH]cnc2n(CC2CCCCC2)c(=O)n1CC1CC1` yielded a melting point of 181 °C. With `COc1cc(Oc2cccc(C(F)(F)F)c2)nc(C(=O)NN=C2CCCC2)c1` the melting point was 146 to 148 °C. `OCCOc1ccc(C=Cc2ncn(CC(O)(Cn3cncn3)c3ccc(F)cc3F)n2)cc1` (stereo unspecified) showed a melting point of 152 to 155 °C. With `CCCc1nc2c(C)cnc(C(=O)O)c2n1Cc1ccc(-c2ccccc2-c2nnn[nH]2)cc1` the melting point was 161 to 163 °C. `CC(=O)Oc1ccc(S(=O)(=O)ON=C(C#N)c2cccs2)cc1` gave a melting point of 114 to 115 °C. `CC(C)COc1ccc(C(=O)N/C(=C\c2ccc(OCC(F)F)cc2)C(=O)NCCO)cc1` showed a melting point of 150 to 151 °C. In the case of `CCOC(=O)COc1c(Cl)c(O)c2c(c1Cl)OC1(CCCCC1)CC2=O`, the melting point is reported as 134 to 135 °C. `CCCc1c(OCCCSCCO)ccc(C(C)=O)c1O` gave a melting point of 72 to 74 °C. `O=[N+]([O-])c1cc(Oc2ccc(Oc3cc([N+](=O)[O-])cc(C(F)(F)F)c3)cc2)cc(C(F)(F)F)c1` showed a melting point of 163 °C. For `COc1nc2cc(Cl)c(Cl)c(N(S(C)(=O)=O)S(C)(=O)=O)c2nc1OC`, the melting point was 240 to 244 °C. In the case of `CCCCOc1ccc2c(c1)C(N(CC(=O)NC(=N)N)S(C)(=O)=O)CC(C)(C)O2` (stereo unspecified), the melting point is reported as 112 to 114 °C. With `CC(=O)CCC(=O)N1CCN(c2c(F)cc(N3CC(CNC(C)=O)OC3=O)cc2F)CC1` (stereo unspecified) the melting point was 52 to 56 °C. For `OCc1nc2cc(CN3CCN(C(c4ccccc4)c4ccccc4)CC3)ccc2[nH]1`, the melting point was 137 °C. Work on `CN1CC[C@H](c2ccc(Cl)cc2)[C@@H](O)C1` (racemic) yielded a melting point of 99 to 100 °C. In the case of `OC(CCl)CNC(c1ccccc1)c1ccccc1` (stereo unspecified), the melting point is reported as 66 to 68 °C. Work on `CC(=O)NC(=NNNc1ccccc1[N+](=O)[O-])c1ccccc1Cl` yielded a melting point of 196 to 198 °C. For `CCOC(=O)c1nc2ccc(OC)cc2n(C)c1=O`, the melting point was 166 °C.

Source: a melting point compilation (Tetko et al.; mined from patent text by program, amines drawn as free bases though some values may be those of a salt)
